Test results taken from the NIST ThermoML archive (doi:10.1021/je5009334).
Values joined by “and” are separate entries in the source; they are usually repeats but may differ in a detail not shown here. Equal values may be shown once. ± gives the expanded uncertainty stated by the source.

Assays:
[1] = 101 kPa, Liquid; for speed of sound: Sing-around technique in a fixed-path interferometer; for mass density: Vibrating tube method
[2] = xn = mol fraction of the nth substance listed; settings: 101 kPa, Liquid; for speed of sound: Sing-around technique in a fixed-path interferometer; for mass density: Vibrating tube method

CCC(O)CO (stereo not drawn) [1,2-butanediol]
[1]
Settings | mass density | speed of sound
298.15 K | 998.509 ± 0.23 kg/m3 and 998.492 ± 0.23 kg/m3 | 1452.6 ± 1.3 m/s
303.15 K | 994.744 ± 0.23 kg/m3 and 994.719 ± 0.23 kg/m3 and 994.759 ± 0.23 kg/m3 | 1438.2 ± 1.3 m/s and 1437.7 ± 1.3 m/s
308.15 K | 990.956 ± 0.23 kg/m3 and 990.971 ± 0.23 kg/m3 | 1423.6 ± 1.3 m/s
313.15 K | 987.136 ± 0.23 kg/m3 and 987.113 ± 0.23 kg/m3 and 987.152 ± 0.23 kg/m3 | 1409.2 ± 1.3 m/s and 1408.5 ± 1.3 m/s and 1409.1 ± 1.3 m/s
318.15 K | 983.284 ± 0.23 kg/m3 and 983.257 ± 0.23 kg/m3 and 983.297 ± 0.23 kg/m3 | 1394.6 ± 1.2 m/s and 1394 ± 1.2 m/s and 1394.5 ± 1.2 m/s
323.15 K | 979.394 ± 0.23 kg/m3 and 979.371 ± 0.23 kg/m3 and 979.406 ± 0.23 kg/m3 | 1380 ± 1.2 m/s and 1379.6 ± 1.2 m/s and 1379.9 ± 1.2 m/s

CCC(O)CO (stereo not drawn) [1,2-butanediol] + CC(O)CCO
[2], x1 = 1
Settings | mass density [kg/m3] | speed of sound [m/s]
298.15 K | 998.509 ± 0.23 | 1452.6 ± 1.3
303.15 K | 994.759 ± 0.23 | 1438.2 ± 1.3
308.15 K | 990.971 ± 0.23 | 1423.6 ± 1.3
313.15 K | 987.152 ± 0.23 | 1409.1 ± 1.3
318.15 K | 983.297 ± 0.23 | 1394.5 ± 1.2
323.15 K | 979.406 ± 0.23 | 1379.9 ± 1.2

CCC(O)CO (stereo not drawn) [1,2-butanediol] + OCCc1ccccc1
[2], x2 = 0
Settings | mass density [kg/m3] | speed of sound [m/s]
298.15 K | 998.509 ± 0.23 | 1452.6 ± 1.3
303.15 K | 994.719 ± 0.23 | 1437.7 ± 1.3
308.15 K | 990.971 ± 0.23 | 1423.6 ± 1.3
313.15 K | 987.113 ± 0.23 | 1408.5 ± 1.3
318.15 K | 983.257 ± 0.23 | 1394 ± 1.2
323.15 K | 979.371 ± 0.23 | 1379.6 ± 1.2

CC(O)CCO (stereo not drawn) [1,3-butanediol]
[1]
Settings | mass density [kg/m3] | speed of sound [m/s]
298.15 K | 1001.82 ± 0.84 | 1527.8 ± 2.1
303.15 K | 998.418 ± 0.84 | 1514.1 ± 2.1
308.15 K | 994.987 ± 0.83 | 1500.2 ± 2.1
313.15 K | 991.528 ± 0.83 | 1486.3 ± 2.1
318.15 K | 988.035 ± 0.82 | 1472.3 ± 2.1
323.15 K | 984.506 ± 0.82 | 1458.3 ± 2.1

OCCc1ccccc1 [2-phenylethanol]
[1]
Settings | mass density [kg/m3] | speed of sound [m/s]
298.15 K | 1016.14 ± 0.24 | 1526.1 ± 1.3
303.15 K | 1012.39 ± 0.24 | 1510.5 ± 1.3
308.15 K | 1008.61 ± 0.24 | 1494.7 ± 1.3
313.15 K | 1004.75 ± 0.23 | 1479.2 ± 1.3
318.15 K | 1000.93 ± 0.23 | 1463.2 ± 1.3
323.15 K | 997.075 ± 0.23 | 1447.7 ± 1.3

OCc1ccccc1 [benzenemethanol]
[1]
Settings | mass density [kg/m3] | speed of sound [m/s]
298.15 K | 1041.22 ± 0.26 | 1525.2 ± 1.3
303.15 K | 1037.35 ± 0.26 | 1509.3 ± 1.3
308.15 K | 1033.47 ± 0.26 | 1493.6 ± 1.3
313.15 K | 1029.58 ± 0.26 | 1478 ± 1.3
318.15 K | 1025.67 ± 0.25 | 1462.6 ± 1.3
323.15 K | 1021.75 ± 0.25 | 1447.3 ± 1.3

OCc1ccccc1 [benzenemethanol] + CCC(O)CO
[2], x1 = 1
Settings | mass density [kg/m3] | speed of sound [m/s]
298.15 K | 1041.22 ± 0.26 | 1525.2 ± 1.3
303.15 K | 1037.35 ± 0.26 | 1509.3 ± 1.3
308.15 K | 1033.47 ± 0.26 | 1493.6 ± 1.3
313.15 K | 1029.58 ± 0.26 | 1478 ± 1.3
318.15 K | 1025.67 ± 0.25 | 1462.6 ± 1.3
323.15 K | 1021.75 ± 0.25 | 1447.3 ± 1.3

CCC(C)O (stereo not drawn) [butan-2-ol]
[1]
Settings | mass density [kg/m3] | speed of sound [m/s]
298.15 K | 803.103 ± 0.24 | 1212.7 ± 1.2
303.15 K | 798.891 ± 0.24 | 1194.5 ± 1.2
308.15 K | 794.588 ± 0.24 | 1176.2 ± 1.2
313.15 K | 790.191 ± 0.24 | 1157.9 ± 1.2
318.15 K | 785.692 ± 0.24 | 1139.5 ± 1.2
323.15 K | 781.09 ± 0.24 | 1121 ± 1.2

CCC(C)O (stereo not drawn) [butan-2-ol] + CCC(O)CO
[2], x2 = 0
Settings | mass density [kg/m3] | speed of sound [m/s]
298.15 K | 803.103 ± 0.24 | 1212.7 ± 1.2
303.15 K | 798.891 ± 0.24 | 1194.5 ± 1.2
308.15 K | 794.588 ± 0.24 | 1176.2 ± 1.2
313.15 K | 790.191 ± 0.24 | 1157.9 ± 1.2
318.15 K | 785.692 ± 0.24 | 1139.5 ± 1.2
323.15 K | 781.09 ± 0.24 | 1121 ± 1.2
